# Results as given in PubChem BioAssay (NCI).
#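 48-hour exposure; five concentrations; linearly interpolated endpoints. The concentration for 50% growth inhibition is given as GI50. TGI: total growth inhibition.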
# Experiments:
# Assay in all cases: DTP human tumour cell line panel, 48 h
# SF-268 CNS = system: SF-268 CNS
# SNB-19 CNS = system: SNB-19 CNS
# HOP-62 NSCLC = system: HOP-62 NSCLC
# MDA-MB-231 breast = system: MDA-MB-231 breast
# LOX IMVI melanoma = system: LOX IMVI melanoma
# A498 renal = system: A498 renal
# TK-10 renal = system: TK-10 renal
# MOLT-4 leukemia = system: MOLT-4 leukemia
# K-562 leukemia = system: K-562 leukemia
# 786-0 renal = system: 786-0 renal
# EKVX NSCLC = system: EKVX NSCLC
# HCT-116 colon = system: HCT-116 colon
# SK-MEL-5 melanoma = system: SK-MEL-5 melanoma
# OVCAR-4 ovarian = system: OVCAR-4 ovarian
# SW-620 colon = system: SW-620 colon
# U251 CNS = system: U251 CNS
# MALME-3M melanoma = system: MALME-3M melanoma
# CCRF-CEM leukemia = system: CCRF-CEM leukemia
# DU-145 prostate = system: DU-145 prostate
# IGROV1 ovarian = system: IGROV1 ovarian
# SN12C renal = system: SN12C renal
# PC-3 prostate = system: PC-3 prostate
# OVCAR-5 ovarian = system: OVCAR-5 ovarian
# SNB-75 CNS = system: SNB-75 CNS
# SR leukemia = system: SR leukemia
# OVCAR-8 ovarian = system: OVCAR-8 ovarian
# RPMI-8226 leukemia = system: RPMI-8226 leukemia
# SK-OV-3 ovarian = system: SK-OV-3 ovarian
# SF-539 CNS = system: SF-539 CNS
# HS 578T breast = system: HS 578T breast
# UACC-62 melanoma = system: UACC-62 melanoma
# ACHN renal = system: ACHN renal
# SK-MEL-28 melanoma = system: SK-MEL-28 melanoma
# SF-295 CNS = system: SF-295 CNS
# MDA-N = system: MDA-N
# MDA-MB-435 = system: MDA-MB-435
# SK-MEL-2 melanoma = system: SK-MEL-2 melanoma
# HCT-15 colon = system: HCT-15 colon
# HT29 colon = system: HT29 colon
# UO-31 renal = system: UO-31 renal
# M14 melanoma = system: M14 melanoma
# NCI-H23 lung = system: NCI-H23 lung
# NCI-H226 lung = system: NCI-H226 lung
# NCI/ADR-RES ovarian = system: NCI/ADR-RES ovarian
# KM12 colon = system: KM12 colon
# A549 NSCLC = system: A549 NSCLC
# MCF7 breast = system: MCF7 breast
# COLO 205 colon = system: COLO 205 colon
# OVCAR-3 ovarian = system: OVCAR-3 ovarian
# UACC-257 melanoma = system: UACC-257 melanoma
# HOP-92 NSCLC = system: HOP-92 NSCLC
# HL-60(TB) leukemia = system: HL-60(TB) leukemia
# NCI-H522 lung = system: NCI-H522 lung
# BT-549 breast = system: BT-549 breast
# CAKI-1 renal = system: CAKI-1 renal
# HCC-2998 colon = system: HCC-2998 colon
# NCI-H460 lung = system: NCI-H460 lung
# RXF 393 renal = system: RXF 393 renal
# T-47D breast = system: T-47D breast
compound,measurement,setting,value
CC(=O)Oc1cc2oc(=O)cc(C)c2cc1OC(C)=O,TGI,SF-268 CNS,> 100 µM
same,TGI,SNB-19 CNS,> 100 µM
same,TGI,HOP-62 NSCLC,> 100 µM
same,TGI,MDA-MB-231 breast,> 100 µM
same,TGI,LOX IMVI melanoma,> 100 µM
same,TGI,A498 renal,> 100 µM
same,TGI,TK-10 renal,> 100 µM
same,TGI,MOLT-4 leukemia,> 100 µM
same,TGI,K-562 leukemia,> 100 µM
same,TGI,786-0 renal,> 100 µM
same,TGI,EKVX NSCLC,> 100 µM
same,TGI,HCT-116 colon,> 100 µM
same,TGI,SK-MEL-5 melanoma,> 100 µM
same,TGI,OVCAR-4 ovarian,> 100 µM
same,TGI,SW-620 colon,> 100 µM
same,TGI,U251 CNS,> 100 µM
same,TGI,MALME-3M melanoma,> 100 µM
same,TGI,CCRF-CEM leukemia,> 100 µM
same,TGI,DU-145 prostate,> 100 µM
same,TGI,IGROV1 ovarian,> 100 µM
same,TGI,SN12C renal,> 100 µM
same,TGI,PC-3 prostate,> 100 µM
same,TGI,OVCAR-5 ovarian,> 100 µM
same,TGI,SNB-75 CNS,> 100 µM
same,TGI,SR leukemia,> 100 µM
same,TGI,OVCAR-8 ovarian,> 100 µM
same,TGI,RPMI-8226 leukemia,> 100 µM
same,TGI,SK-OV-3 ovarian,> 100 µM
same,TGI,SF-539 CNS,> 100 µM
same,TGI,HS 578T breast,> 100 µM
same,TGI,UACC-62 melanoma,> 100 µM
same,TGI,ACHN renal,> 100 µM
same,TGI,SK-MEL-28 melanoma,> 100 µM
same,TGI,SF-295 CNS,> 100 µM
same,TGI,MDA-N,> 100 µM
same,TGI,MDA-MB-435,> 100 µM
same,TGI,SK-MEL-2 melanoma,> 100 µM
same,TGI,HCT-15 colon,> 100 µM
same,TGI,HT29 colon,> 100 µM
same,TGI,UO-31 renal,> 100 µM
same,TGI,M14 melanoma,> 100 µM
same,TGI,NCI-H23 lung,> 100 µM
same,TGI,NCI-H226 lung,> 100 µM
same,TGI,NCI/ADR-RES ovarian,> 100 µM
same,TGI,KM12 colon,> 100 µM
same,TGI,A549 NSCLC,> 100 µM
same,TGI,MCF7 breast,> 100 µM
same,TGI,COLO 205 colon,> 100 µM
same,TGI,OVCAR-3 ovarian,> 100 µM
same,TGI,UACC-257 melanoma,> 100 µM
COc1cc(C(=O)/C=C/c2c(C)n([O-])c3ccc(C(F)(F)F)cc3[n+]2=O)cc(OC)c1OC,GI50,SF-268 CNS,12.8 µM
same,TGI,SF-268 CNS,37.4 µM
same,GI50,SNB-19 CNS,36.1 µM
same,TGI,SNB-19 CNS,> 100 µM
same,GI50,HOP-62 NSCLC,25.2 µM
same,TGI,HOP-62 NSCLC,> 100 µM
same,GI50,HOP-92 NSCLC,3.04 µM
same,TGI,HOP-92 NSCLC,21.3 µM
same,GI50,MDA-MB-231 breast,8.54 µM
same,TGI,MDA-MB-231 breast,> 79.3 µM
same,GI50,LOX IMVI melanoma,0.77 µM
same,TGI,LOX IMVI melanoma,2.66 µM
same,GI50,A498 renal,14.5 µM
same,TGI,A498 renal,51.7 µM
same,GI50,HL-60(TB) leukemia,2.92 µM
same,TGI,HL-60(TB) leukemia,7.89 µM
same,GI50,TK-10 renal,1.41 µM
same,TGI,TK-10 renal,2.82 µM
same,GI50,NCI-H522 lung,0.232 µM
same,TGI,NCI-H522 lung,0.784 µM
same,GI50,BT-549 breast,8.34 µM
same,TGI,BT-549 breast,25.6 µM
same,GI50,MOLT-4 leukemia,1.75 µM
same,TGI,MOLT-4 leukemia,5.11 µM
same,GI50,K-562 leukemia,1.65 µM
same,TGI,K-562 leukemia,5.85 µM
same,GI50,786-0 renal,1.96 µM
same,TGI,786-0 renal,4.31 µM
same,GI50,EKVX NSCLC,21.4 µM
same,TGI,EKVX NSCLC,> 100 µM
same,GI50,HCT-116 colon,0.83 µM
same,TGI,HCT-116 colon,2.51 µM
same,GI50,SK-MEL-5 melanoma,17.6 µM
same,TGI,SK-MEL-5 melanoma,> 57.3 µM
same,GI50,OVCAR-4 ovarian,7.1 µM
same,TGI,OVCAR-4 ovarian,> 100 µM
same,GI50,SW-620 colon,0.68 µM
same,TGI,SW-620 colon,2.04 µM
same,GI50,CAKI-1 renal,3.32 µM
same,TGI,CAKI-1 renal,> 38.1 µM
same,GI50,U251 CNS,8.83 µM
same,TGI,U251 CNS,24.1 µM
same,GI50,MALME-3M melanoma,1.74 µM
same,TGI,MALME-3M melanoma,4.19 µM
same,GI50,CCRF-CEM leukemia,0.564 µM
same,TGI,CCRF-CEM leukemia,> 100 µM
same,GI50,DU-145 prostate,4.11 µM
same,TGI,DU-145 prostate,14.3 µM
same,GI50,IGROV1 ovarian,7.54 µM
same,TGI,IGROV1 ovarian,48.4 µM
same,GI50,SN12C renal,6.89 µM
same,TGI,SN12C renal,> 100 µM
same,GI50,PC-3 prostate,6.41 µM
same,TGI,PC-3 prostate,> 100 µM
same,GI50,OVCAR-5 ovarian,15.2 µM
same,TGI,OVCAR-5 ovarian,> 83.4 µM
same,GI50,SNB-75 CNS,10.9 µM
same,TGI,SNB-75 CNS,24.6 µM
same,GI50,SR leukemia,2.67 µM
same,TGI,SR leukemia,> 100 µM
same,GI50,OVCAR-8 ovarian,2.99 µM
same,TGI,OVCAR-8 ovarian,> 31.1 µM
same,GI50,RPMI-8226 leukemia,5.23 µM
same,TGI,RPMI-8226 leukemia,48.9 µM
same,GI50,SK-OV-3 ovarian,27.1 µM
same,TGI,SK-OV-3 ovarian,> 100 µM
same,GI50,SF-539 CNS,3.7 µM
same,TGI,SF-539 CNS,15 µM
same,GI50,HCC-2998 colon,15.5 µM
same,TGI,HCC-2998 colon,35.7 µM
same,GI50,HS 578T breast,7.55 µM
same,TGI,HS 578T breast,> 77.8 µM
same,GI50,UACC-62 melanoma,3.62 µM
same,TGI,UACC-62 melanoma,13.8 µM
same,GI50,ACHN renal,1.49 µM
same,TGI,ACHN renal,3.82 µM
same,GI50,NCI-H460 lung,10.7 µM
same,TGI,NCI-H460 lung,29.1 µM
same,GI50,SK-MEL-28 melanoma,7.62 µM
same,TGI,SK-MEL-28 melanoma,23.6 µM
same,GI50,SF-295 CNS,26.2 µM
same,TGI,SF-295 CNS,> 90.7 µM
same,GI50,MDA-MB-435,3.15 µM
same,TGI,MDA-MB-435,15.8 µM
same,GI50,RXF 393 renal,1.44 µM
same,TGI,RXF 393 renal,2.86 µM
same,GI50,SK-MEL-2 melanoma,4 µM
same,TGI,SK-MEL-2 melanoma,13.5 µM
same,GI50,HCT-15 colon,3.55 µM
same,TGI,HCT-15 colon,24.2 µM
same,GI50,HT29 colon,1.69 µM
same,TGI,HT29 colon,3.99 µM
same,GI50,UO-31 renal,1.45 µM
same,TGI,UO-31 renal,3.51 µM
same,GI50,M14 melanoma,2.42 µM
same,TGI,M14 melanoma,8.46 µM
same,GI50,NCI-H23 lung,3.8 µM
same,TGI,NCI-H23 lung,15.1 µM
same,GI50,NCI-H226 lung,15.1 µM
same,TGI,NCI-H226 lung,> 57.7 µM
same,GI50,T-47D breast,2.15 µM
same,TGI,T-47D breast,7.83 µM
same,GI50,NCI/ADR-RES ovarian,3.54 µM
same,TGI,NCI/ADR-RES ovarian,97.7 µM
same,GI50,KM12 colon,13.5 µM
same,TGI,KM12 colon,34.3 µM
same,GI50,A549 NSCLC,19.8 µM
same,TGI,A549 NSCLC,> 93.3 µM
same,GI50,MCF7 breast,4.26 µM
same,TGI,MCF7 breast,17.3 µM
same,GI50,COLO 205 colon,1.43 µM
same,TGI,COLO 205 colon,2.88 µM
same,GI50,OVCAR-3 ovarian,1.37 µM
same,TGI,OVCAR-3 ovarian,3.07 µM
same,GI50,UACC-257 melanoma,1.78 µM
same,TGI,UACC-257 melanoma,3.94 µM
